# Patent US6358885B1, “Substituted phenylheterocyclic herbicides” (Mississippi State University, priority 1992, dated 2002)
# Experiments:
# cotton = experiment: Test C preemergence/postemergence greenhouse plant response rating 0 to 100; format: in vivo, Gossypium hirsutum; conditions: POSTEMERGENCE
# How it was run: (§1)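 Compounds in non-phytotoxic solvent went onto sandy loam before emergence (seeded one day earlier) or onto plants at the one-to-four leaf stage. Duck salad was treated via flood water (~2.5 cm, maintained) over silt loam.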
# blackgrass [1] = experiment: as above; format: in vivo, Alopecurus myosuroides; conditions: POSTEMERGENCE
# How it was run: as §1
# bedstraw = experiment: Test B preemergence/postemergence greenhouse plant response rating 0 to 10; format: in vivo, Galium aparine; conditions: 0 to 10 scale
# How it was run: (§2)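 Planted seeds are treated preemergence with compound dissolved in a non-phytotoxic solvent, while postemergence applications go onto plants of two to eighteen cm. Plants stay in the greenhouse twelve to sixteen days and are then rated visually relative to controls.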
# pigweed = experiment: Test C preemergence/postemergence greenhouse plant response rating 0 to 100; format: in vivo, Amaranthusretroflexus; conditions: POSTEMERGENCE
# How it was run: as §1
# cocklebur = experiment: Test B preemergence/postemergence greenhouse plant response rating 0 to 10; format: in vivo, Xanthium pensylvanicum; conditions: 0 to 10 scale
# How it was run: as §2
# morningglory = experiment: as above; format: in vivo, Ipomoea hederacea; conditions: 0 to 10 scale
# How it was run: as §2
# sugar beet = experiment: as above; format: in vivo, Beta vulgaris; conditions: 0 to 10 scale
# How it was run: as §2
# barnyardgrass = experiment: Test C flood test plant response rating 0 to 100; format: in vivo, Echinochloa crus-galli
# How it was run: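 Compounds in non-phytotoxic solvent applied preemergence to sandy loam one day after planting, postemergence at the 1–4 leaf stage, or to ~2.5 cm floodwater over silt loam.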
# wild oat = experiment: Test B preemergence/postemergence greenhouse plant response rating 0 to 10; format: in vivo, Avena fatua; conditions: 0 to 10 scale
# How it was run: as §2
# blackgrass [2] = experiment: as above; format: in vivo, Alopecurus myosuroides; conditions: 0 to 10 scale
# How it was run: as §2
# ryegrass = experiment: Test C preemergence/postemergence greenhouse plant response rating 0 to 100; format: in vivo, Lolium multiflorum; conditions: POSTEMERGENCE
# How it was run: as §1
# wheat = experiment: as above; format: in vivo, Triticum aestivum; conditions: POSTEMERGENCE
# How it was run: as §1
smiles,measurement,setting,value
COCN1C(=O)COc2cc(F)c(-c3nn4c(c3Br)CCCC4)cc21 [Compound 67],"Plant response rating, Cotton","cotton; 62 g/ha, 0 to 100 scale",100
same,"Plant response rating (0 to 100), Cotton",cotton; Rate 1 g/ha,95
same,"Plant response rating (0 to 100), Cotton",cotton; Rate 4 g/ha,100
same,"Plant response rating (0 to 100), Cotton",cotton; Rate 16 g/ha,100
same,"Plant response rating, Blackgrass","blackgrass [1]; 62 g/ha, 0 to 100 scale",60
same,"Plant response rating (0 to 100), Blackgrass",blackgrass [1]; Rate 1 g/ha,30
same,"Plant response rating (0 to 100), Blackgrass",blackgrass [1]; Rate 4 g/ha,40
same,"Plant response rating (0 to 100), Blackgrass",blackgrass [1]; Rate 16 g/ha,50
same,"Plant response rating, Bedstraw","bedstraw; POSTEMERGENCE, Rate 10 g/ha",8
same,"Plant response rating, Bedstraw","bedstraw; POSTEMERGENCE, Rate 50 g/ha",10
same,"Plant response rating, Bedstraw","bedstraw; PREEMERGENCE, Rate 10 g/ha",0
same,"Plant response rating, Bedstraw","bedstraw; PREEMERGENCE, Rate 50 g/ha",3
same,Plant response rating Pigweed,"pigweed; 62 g/ha, 0 to 100 scale",100
same,"Plant response rating (0 to 100), Pigweed",pigweed; Rate 4 g/ha,70
same,"Plant response rating (0 to 100), Pigweed",pigweed; Rate 16 g/ha,100
same,"Plant response rating, Cocklebur","cocklebur; POSTEMERGENCE, Rate 10 g/ha",8
same,"Plant response rating, Cocklebur","cocklebur; POSTEMERGENCE, Rate 50 g/ha",9
same,"Plant response rating, Cocklebur","cocklebur; PREEMERGENCE, Rate 10 g/ha",0
same,"Plant response rating, Cocklebur","cocklebur; PREEMERGENCE, Rate 50 g/ha",0
same,"Plant response rating, Morningglory","morningglory; POSTEMERGENCE, Rate 10 g/ha",10
same,"Plant response rating, Morningglory","morningglory; POSTEMERGENCE, Rate 50 g/ha",10
same,"Plant response rating, Morningglory","morningglory; PREEMERGENCE, Rate 50 g/ha",2
same,"Plant response rating, Sugar beet","sugar beet; POSTEMERGENCE, Rate 10 g/ha",10
same,"Plant response rating, Sugar beet","sugar beet; POSTEMERGENCE, Rate 50 g/ha",10
same,"Plant response rating, Sugar beet","sugar beet; PREEMERGENCE, Rate 50 g/ha",9
same,"Plant response rating (0 to 100), Barnyardgrass 2","barnyardgrass; POSTEMERGENCE section, flood test, Rate 1 g/ha",0
same,"Plant response rating (0 to 100), Barnyardgrass 2","barnyardgrass; POSTEMERGENCE section, flood test, Rate 4 g/ha",20
same,"Plant response rating (0 to 100), Barnyardgrass 2","barnyardgrass; Rate 16 g/ha, under POSTEMERGENCE head (flood test species)",90
same,Plant response rating Barnyardgrass 2,"barnyardgrass; flood test species listed under POSTEMERGENCE, 62 g/ha, 0 to 100 scale",95
same,"Plant response rating, Wild oat","wild oat; POSTEMERGENCE, Rate 10 g/ha",6
same,"Plant response rating, Wild oat","wild oat; POSTEMERGENCE, Rate 50 g/ha",7
same,"Plant response rating, Wild oat","wild oat; PREEMERGENCE, Rate 50 g/ha",5
same,"Plant response rating, Blackgrass","blackgrass [2]; POSTEMERGENCE, Rate 10 g/ha",4
same,"Plant response rating, Blackgrass","blackgrass [2]; POSTEMERGENCE, Rate 50 g/ha",5
same,"Plant response rating, Blackgrass","blackgrass [2]; PREEMERGENCE, Rate 10 g/ha",3
same,"Plant response rating, Blackgrass","blackgrass [2]; PREEMERGENCE, Rate 50 g/ha",8
same,Plant response rating Ryegrass,"ryegrass; 62 g/ha, 0 to 100 scale",60
same,"Plant response rating (0 to 100), Ryegrass",ryegrass; Rate 1 g/ha,20
same,"Plant response rating (0 to 100), Ryegrass",ryegrass; Rate 4 g/ha,40
same,"Plant response rating (0 to 100), Ryegrass",ryegrass; Rate 16 g/ha,50
same,"Plant response rating, Wheat","wheat; 62 g/ha, 0 to 100 scale",60
same,"Plant response rating (0 to 100), Wheat",wheat; Rate 1 g/ha,10
same,"Plant response rating (0 to 100), Wheat",wheat; Rate 4 g/ha,30
same,"Plant response rating (0 to 100), Wheat",wheat; Rate 16 g/ha,50
